This note sets out measurements from PubChem BioAssay (NCI).

Among the test systems are HOP-18 NSCLC; DMS 273 small cell lung; SN12K1 renal; M19-MEL melanoma; P388 leukemia; DLD-1 colon; SNB-78 CNS; MDA-N.
Common to all, as to test: NCI tumour cell line growth inhibition, 48 h

Several values for one entry are separate records, joined by “and”; a condition that tells them apart may be missing. Equal values may be shown once.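 In this assay, cells in 96-well plates receive the compound at five concentrations for 48 hours. Endpoints are linearly interpolated between the surrounding concentrations. The concentration for 50% growth inhibition is given as GI50. At the TGI there is no net growth.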

`CC(C)CCCCCCCCCCCCC(=O)NCC(=O)NC1C(O)C(O)C(Nc2ncnc3nc[nH]c23)OC1C(O)CO` (stereo not drawn): the TGI in the assay on HOP-18 NSCLC was 1.08 nM; in the assay with DMS 273 small cell lung, 1.74 nM; with SN12K1 renal, 332 nM and 223 nM; in the assay on M19-MEL melanoma, 40.9 nM and 15.6 nM; in the assay with P388 leukemia, 6.16 nM and 5.07 nM; in the assay with DLD-1 colon it was 3830 nM. Further, the TGI in the assay on SNB-78 CNS is 64.7 nM and 244 nM. In addition, the GI50 in the assay with SN12K1 renal was 6.46 nM; in the assay on M19-MEL melanoma it was 5 nM; with P388 leukemia, 5 nM; with DLD-1 colon, 10.4 nM; with SNB-78 CNS, 5 nM; with MDA-N, less than 0.01 nM.
